Assay results taken from article PMC7019173, “Stapled peptide targeting the CDK4/Cyclin D interface combined with Abemaciclib inhibits KRAS mutant lung cancer growth” (Theranostics, 2020).
Where a SMILES comes first, the peptide text is derived from it. Bridges are numbered along the chain shown (N, C = ends). [ ]: non-standard residue; d: D form. S5 = C=CCCC[C@](C)(N)C(=O)O

Key:
A549 cells [1] = test: cells; format: cell-based, human; settings: Homo sapiens, A549; 48 hours, crystal violet, at least two independent experiments (n=4/experiment) ± SD, Grafit; read-out: IC50 A549 cell proliferation
Description: Non-small cell lung cancer A549, H358 and PC9 cell lines used in this study. Cell culture media, serum and antibiotics were purchased from Life Technologies. All cell lines were cultured in RPMI + Glutamax supplemented with 10% FCS, 100 units/mL penicillin (G sodium salt) and 100 µg/mL streptomycin at 37 °C in an atmosphere containing 5% CO2. […] Stock solutions of drugs were prepared in DMSO and freshly diluted in PBS to the desired concentration prior to use, then added onto unsynchronized cells cultured to subconfluency (60-70%), which were then further incubated for 24, 48 or 72 h. Cell proliferation was determined by crystal violet assay following treatment with drugs. Cells were washed with PBS, fixed with 3.7% formaldehyde for 10 min and then incubated with 0.1% crystal violet dye for 30 min. After rinsing, crystals were dissolved in 10% acetic acid and viability was determined by measuring absorbance at 595 nm.

A549 cells [2] = test: Flow cytometry cell cycle analysis; format: cell-based, human; settings: 24 h, Abemaciclib 0.5 and 5 µM, Ctrl stapled peptide 10 µM, P2short 1 or 10 µM
Description: Cells were trypsinized and fixed in 70% ice cold ethanol, washed in PBS and resuspended in PBS-1% BSA-50 mM citrate with 25 µg/mL RNase A for 15 min at 37 °C, supplemented with 25 µg/mL of propidium iodide for 30 min at room temperature. For each condition 20000 events were analysed by Gallios (Beckman Coulter) and data analysis was performed using FlowJo Software.

[3] = system: H358 orthotopic lung tumours; test: Antitumour efficacy in mice with orthotopic lung tumour; format: in vivo
Description: Luciferase-modified human H358 NSCLC cells (H358-Luc cells) were suspended in medium with 10 mM EDTA and 5 mg/mL Matrigel (BD Biosciences) at 5.10^6 cells/50 μL. Six-week-old female NMRI nude mice (Janvier, Le Genest, Saint Isle, France) were anesthetized (isoflurane/air 4% for induction and 1.5% thereafter), and cells were inoculated in the lungs via the airways as previously described, [48]. Non-invasive in vivo bioluminescence imaging (IVIS Kinetic, Perkin-Elmer) was used 10 min after the intraperitoneal injection of 10 mg/mL D-Luciferin (Promega, Charbonnières, France) to monitor the quality of the implantation and to follow orthotopic growth, [48]. […] Five weeks after the inoculation of H358-Luc cells, when bioluminescent orthotopic tumours were detected, nude mice were randomly divided into 6 groups. […] To determine proliferative index, total and Ki67 positive tumour epithelial cells were scored on two to eight fields per mouse in three or four mice per group, and reported as percentage of Ki67 positive cells. […] Total and p-RB positive tumour epithelial cells were scored on two to twenty-nine fields per mouse in three or four mice per group, and reported as percentage of p-RB positive cells in each field and each treatment group.

circular dichroism = settings: 50 mM phosphate buffer; pH 7; 20 °C; 100 uM
[4] = Circular dichroism, determination of alpha helical content; format: physicochemical
Description: CD experiments were carried out using a Jasco J815 spectropolarimeter. Spectra were recorded with 100 μM of peptides dissolved in phosphate buffer 50 mM, pH 7, using a 1 mm pathlength CD cuvette at 20 °C, over a wavelength range of 190-260 nm. Continuous scanning mode was used, with a response of 1.0 s with 0.1 nm steps and a bandwidth of 2 nm. The signal to noise ratio was improved by acquiring each spectrum over an average of two scans. Baseline was corrected by subtracting the background from the sample spectrum.
Alpha helical content was determined using the following equation: % Helix = ([θ])obs * 100)/(-39500 * (1-2.57/n), where ([θ])obs is the mean residue ellipticity at 222 nm and n the number of peptide bonds.

[5] = molecular target: C4D peptide derived from the alpha 5 helix of cyclin D1 (Homo sapiens, UniProt P24385); test: Fluorescence titration of TP2-Rho-labelled C4D peptide with CDK4 C helix-derived peptides; format: binding; settings: 200 nM TP2-Rho labelled C4D peptide, PBS, 30 °C, average of n = 3 to 5 ± SD
Chain of C4D peptide derived from the alpha 5 helix of cyclin D1 (P24385 whole entry): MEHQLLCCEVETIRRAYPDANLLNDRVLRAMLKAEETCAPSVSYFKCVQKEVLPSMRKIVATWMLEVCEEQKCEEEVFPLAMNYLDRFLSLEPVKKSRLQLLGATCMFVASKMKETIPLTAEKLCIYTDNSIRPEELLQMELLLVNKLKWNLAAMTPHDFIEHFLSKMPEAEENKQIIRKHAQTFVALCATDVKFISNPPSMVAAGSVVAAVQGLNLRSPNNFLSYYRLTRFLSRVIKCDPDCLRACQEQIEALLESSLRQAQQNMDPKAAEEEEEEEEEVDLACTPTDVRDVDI
Description: (§1) TP2-Rho-labelled peptides: peptides were labelled on a unique cysteine residue with a five-fold molar excess of TP2-Rho-maleimide overnight, and then purified from free dye on NAP-5 columns (GE Healthcare), as described previously.
(§2) Fluorescence titration assays were performed in 96-well plates in a thermostated chamber (Clariostar spectrofluorimeter, BMG) at 30 °C in 200 μL phosphate buffer saline using 200 nM fluorescently-labelled peptides or proteins. The fluorescence emission intensity of TP2-Rho-labelled peptides was recorded at 614 nm following excitation at 510 nm. The fluorescence emission intensity of mant-ATP was measured at […]. Data analysis was performed using the GraFit Software (Erathicus Ltd) and curve fitting was performed using a quadratic equation, as described previously. Experiments were performed in triplicate, and Kd values represent the average calculated for n = 3 to 5 experiments, together with standard deviation.

GST-cyclin D1 = molecular target: T1, GST-cyclin D1 (Homo sapiens, UniProt P24385); test: Fluorescence titration of TP2-Rho-labelled peptides with GST-cyclin D1; format: binding; settings: 200 nM TP2-Rho labelled peptide titrated with GST-cyclin D1, PBS, 30 °C, average of n = 3 to 5 ± SD
T1 construct: made in house; host or cells: E. coli
T1 sequence (P24385 whole entry): as above
Description: as §1
Recombinant GST-CDK4 and GST-cyclin D1 were expressed in E. coli by IPTG induction and purified by FPLC chromatography as described previously.
as §2

[6] = Solubility of stapled peptides; format: physicochemical

With `CCN1CCN(Cc2ccc(Nc3ncc(F)c(-c4cc(F)c5nc(C)n(C(C)C)c5c4)n3)nc2)CC1` [Abemaciclib] the IC50 (A549 cells [1]) was 2720 ± 2210 nM, the “effect on the cell cycle (proportion of cells in G1)” value (A549 cells [2]) was “significantly increased the proportion of cells in G1” and the “effect on H358 orthotopic tumour growth, single agent” value ([3]; bioluminescence, 3 weeks, Abemaciclib 10 mg/kg daily oral, P2shortA 0.45 mg/kg intrapulmonary 2 times a week, n=10) was “slightly reduced tumour growth”. For the same compound, the “Ki67 or pRb levels in tumours, single agent” value ([3]; intrapulmonary P2shortA or Abemaciclib alone, immunohistochemistry) was “did not reduce Ki67 or pRb levels”.

For `CC[C@H](C)[C@H](NC(=O)[C@@H]1CCCN1C(=O)[C@@H](N)CS)C(=O)N[C@@H](CO)C(=O)N[C@H](C(=O)N[C@H](C(=O)N[C@@H](CCCNC(=N)N)C(=O)N[C@@H](CCC(=O)O)C(=O)N[C@H](C(=O)N[C@@H](C)C(=O)N[C@@H](CC(C)C)C(=O)N[C@@H](CC(C)C)C(=O)N[C@@H](CCCNC(=N)N)C(=O)N[C@@H](CCCNC(=N)N)C(=O)N[C@@H](CC(C)C)C(=O)N[C@@H](CCC(=O)O)C(=O)N[C@@H](C)C(=O)N[C@@H](Cc1ccccc1)C(=O)N[C@@H](CCC(=O)O)C(N)=O)C(C)C)C(C)C)[C@@H](C)O` [CDK4 C peptide] (H-CPISTVREVALLRRLEAFE-NH2), the helicity (circular dichroism) was 7%, the “% helix (alpha helical content)” value ([4]; CD, 100 μM peptide in phosphate buffer 50 mM, pH 7, 20 °C, from mean residue ellipticity at 222 nm) was 7% and the “helicity upon addition of 25% TFE” value ([4]; CD, phosphate buffer with 25% TFE) was 46%. The “conformation in solution (CD)” value ([4]; phosphate buffer) was “disordered”, the Kd [5] was 83 ± 45 nM and the Kd (GST-cyclin D1) was 43 ± 24 nM.

With `CC[C@H](C)[C@H](NC(=O)[C@@H]1CCCN1C(=O)[C@H](CC(C)C)NC(=O)CNC(C)=O)C(=O)N[C@@H](CO)C(=O)N[C@H](C(=O)N[C@H](C(=O)N[C@@H](CCCNC(=N)N)C(=O)N[C@@H](CCC(=O)O)C(=O)N[C@H](C(=O)N[C@@H](C)C(=O)N[C@@H](CC(C)C)C(=O)N[C@@]1(C)CCCC=CCCC[C@@](C)(C(=O)N[C@@H](C)C(=O)N[C@@H](Cc2ccccc2)C(=O)N[C@@H](CCC(=O)O)C(N)=O)NC(=O)[C@H](CC(C)C)NC(=O)[C@H](CCCNC(=N)N)NC(=O)[C@H](CCCNC(=N)N)NC1=O)C(C)C)C(C)C)[C@@H](C)O` [P3] (Ac-GLPISTVREVAL[S5]RRL[S5]AFE-NH2; staple 13-17) the solubility [6] was “poorly soluble”.
